Measured values: patent publication US11130793B2, “GLP-1/GLP-2 dual agonists” (Zealand Pharma A/S, priority 2016, dated 2021)
Square brackets hold non-standard residues; d marks the D form. Peptide text beside a SMILES is read from it. Aib = CC(C)(N)C(=O)O

Key:
human GLP-1 receptor = target: T1, human GLP-1 receptor (Homo sapiens, UniProt P43220); assay: GLP-1 receptor potency assay (cAMP AlphaScreen, HEK293 cells stably expressing GLP-1R); format: cell-based; settings: cAMP response, HEK293 cells expressing human GLP-1R; read-out: EC50 GLP-1
T1 construct: expressed in transfected cells
T1 sequence (P43220 24-463): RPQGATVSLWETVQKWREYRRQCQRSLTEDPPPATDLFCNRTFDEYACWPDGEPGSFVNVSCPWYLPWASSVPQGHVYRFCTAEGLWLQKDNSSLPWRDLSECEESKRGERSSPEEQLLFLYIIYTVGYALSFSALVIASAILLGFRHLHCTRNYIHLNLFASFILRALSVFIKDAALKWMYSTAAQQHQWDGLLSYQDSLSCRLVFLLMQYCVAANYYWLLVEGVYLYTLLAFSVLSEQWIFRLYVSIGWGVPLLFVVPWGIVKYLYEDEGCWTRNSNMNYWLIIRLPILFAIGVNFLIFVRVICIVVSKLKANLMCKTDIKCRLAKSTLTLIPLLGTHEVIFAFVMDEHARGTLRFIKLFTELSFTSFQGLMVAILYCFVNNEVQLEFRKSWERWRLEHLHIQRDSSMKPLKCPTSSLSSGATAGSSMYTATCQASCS
Description: (§1) One useful in vitro assay for measuring GLP-1 and GLP-2 receptor activity is quantitation of cAMP, i.e. 3′-5′-cyclic adenosine monophosphate, which is a second messenger essential in many biological processes, and one of the most ubiquitous mechanisms for regulating cellular functions. […] Test compounds eliciting an increase in the intracellular level of cAMP can be tested in these assays, and the response normalized relative to a positive and negative control (vehicle) to calculate the EC50 and maximal response from the concentration response curve using the 4-parameter logistic (4PL) nonlinear model for curve fitting.
The cDNA encoding the human glucagon-like peptide 1 receptor (GLP-1R) (primary accession number P43220) was cloned from the cDNA BC112126 (MGC:138331/IMAGE:8327594). The DNA encoding the GLP-1-R was amplified by PCR using primers encoding terminal restriction sites for subcloning. The 5′-end primers additionally encoded a near Kozak consensus sequence to ensure efficient translation. […] The PCR products encoding the GLP-1-R were subcloned into a mammalian expression vector containing a neomycin (G418) resistance marker. The mammalian expression vectors encoding the GLP-1-R were transfected into HEK293 cells by a standard calcium phosphate transfection method. 48 hours post-transfection, cells were seeded for limited dilution cloning and selected with 1 mg/ml G418 in the culture medium. Following 3 weeks in G418 selection clones were picked and tested in a functional GLP-1 receptor potency assay as described below.
(§2) The cAMP AlphaScreen assay from Perkin Elmer was used to quantitate the cAMP response to activation of the GLP1 and GLP2 receptor, respectively. […] Data from test compounds eliciting an increase in the intracellular level of cAMP were normalized relative to the positive and negative control (vehicle) to calculate the EC50 and maximal response from the concentration response curve.

human GLP-2 receptor = target: T2, human GLP-2 receptor (Homo sapiens, UniProt O95838, D470N); assay: GLP-2 receptor potency assay (cAMP AlphaScreen, HEK293 cells stably expressing GLP-2R); format: cell-based; settings: cAMP response, HEK293 cells expressing human GLP-2R
T2 sequence (O95838 1-553 D470N): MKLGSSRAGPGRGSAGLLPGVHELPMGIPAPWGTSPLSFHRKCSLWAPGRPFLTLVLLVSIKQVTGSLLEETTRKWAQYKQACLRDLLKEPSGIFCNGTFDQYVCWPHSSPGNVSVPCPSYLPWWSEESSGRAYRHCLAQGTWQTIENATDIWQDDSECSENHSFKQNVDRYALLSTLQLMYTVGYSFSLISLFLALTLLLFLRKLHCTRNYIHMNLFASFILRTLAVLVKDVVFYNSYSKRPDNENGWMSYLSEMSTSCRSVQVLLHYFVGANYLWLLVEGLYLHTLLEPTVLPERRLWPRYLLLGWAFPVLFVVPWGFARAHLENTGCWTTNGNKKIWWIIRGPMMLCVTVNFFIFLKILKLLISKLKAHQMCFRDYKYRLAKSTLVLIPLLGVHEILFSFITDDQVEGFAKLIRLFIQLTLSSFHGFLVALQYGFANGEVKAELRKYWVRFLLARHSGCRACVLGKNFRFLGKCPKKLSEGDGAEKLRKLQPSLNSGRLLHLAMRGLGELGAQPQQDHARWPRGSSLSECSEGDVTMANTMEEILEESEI
Description: as §1
The hGLP2-R was purchased from MRC-geneservice, Babraham, Cambridge as an Image clone: 5363415 (11924-I17). For subcloning into a mammalian expression vector, primers for subcloning were obtained from DNA-Technology, Risskov, Denmark. The 5′ and 3′ primers used for the PCR reaction include terminal restriction sites for cloning and the context of the 5′ primer is modified to a Kozak consensus without changing the sequence of the product encoded by the ORF. A standard PCR reaction was run using Image clone 5363415 (11924-117) as a template with the above mentioned primers and Polymerase Herculase II Fusion in a total vol. of 50 μl. The generated PCR product was purified using GFX PCR and Gel band purification kit, digested with restriction enzymes and cloned into the mammalian expression vector using Rapid DNA Ligation Kit. Ligation reaction was transformed to XL10 Gold Ultracompetent cells and colonies were picked for DNA production using Endofree Plasmid maxi kit. Subsequent sequence analysis was conducted by MWG Eurofins, Germany.
HEK293 cells were transfected using the Lipofectamine PLUS transfection method. The day before transfection, HEK293 cells were seeded in two T75 flasks at a density of 2×10^6 cells/T75 flask in cell culturing medium without antibiotics. On the day of transfection, cells were washed with 1×DPBS and medium was replaced with Optimem to a volume of 5 mL/T75 flask before addition of Lipofectamine-plasmid complexes were added gently and drop wise to the cells in T75 flasks and replaced with growth medium after 3 hours and again to growth medium supplemented with 500 μg/mL G418 after 24 hours. Following 4 weeks in G418 selection, clones were picked and tested in a functional GLP-2 receptor potency assay as described below.
as §2

Structure (SMILES)	EC50 (human GLP-1 receptor)	EC50 (human GLP-2 receptor)
CC[C@H](C)[C@H](NC(=O)[C@H](Cc1ccccc1)NC(=O)[C@H](CC(=O)O)NC(=O)[C@H](CCCNC(=N)N)NC(=O)[C@H](C)NC(=O)[C@H](C)NC(=O)[C@H](CCC(N)=O)NC(=O)[C@H](CCC(=O)O)NC(=O)[C@H](CC(=O)O)NC(=O)[C@H](CC(C)C)NC(=O)[C@@H](NC(=O)[C@@H](NC(=O)[C@H](C)NC(=O)[C@H](CC(C)C)NC(=O)[C@H](CCC(=O)O)NC(=O)[C@H](CO)NC(=O)[C@@H](NC(=O)[C@H](Cc1ccccc1)NC(=O)[C@@H](NC(=O)CNC(=O)[C@H](CCC(=O)O)NC(=O)C(C)(C)NC(=O)[C@@H](N)Cc1c[nH]cn1)[C@@H](C)O)[C@@H](C)O)[C@@H](C)O)[C@@H](C)CC)C(=O)N[C@@H](C)C(=O)N[C@@H](Cc1c[nH]c2ccccc12)C(=O)N[C@@H](CC(C)C)C(=O)N[C@@H](Cc1c[nH]cn1)C(=O)N[C@@H](C)C(=O)N[C@@H](Cc1c[nH]cn1)C(=O)N[C@@H](CCCCN)C(=O)N[C@H](C(=O)N[C@H](C(=O)N[C@@H](CC(=O)O)C(=O)O)[C@@H](C)O)[C@@H](C)CC [Compound 12] (H-H[Aib]EGTFTSELATILDEQAARDFIAWLHAHKITD-OH)	0.055 nM	0.076 nM
CC[C@H](C)[C@H](NC(=O)[C@H](Cc1ccccc1)NC(=O)[C@H](CC(=O)O)NC(=O)[C@H](CCCNC(=N)N)NC(=O)[C@H](C)NC(=O)[C@H](C)NC(=O)[C@H](CCC(N)=O)NC(=O)[C@H](CCC(=O)O)NC(=O)[C@H](CC(=O)O)NC(=O)[C@H](CC(C)C)NC(=O)[C@@H](NC(=O)[C@@H](NC(=O)[C@H](C)NC(=O)[C@H](CC(C)C)NC(=O)[C@H](CCC(=O)O)NC(=O)[C@H](CO)NC(=O)[C@@H](NC(=O)[C@H](Cc1ccccc1)NC(=O)[C@H](CO)NC(=O)CNC(=O)[C@H](CCC(=O)O)NC(=O)C(C)(C)NC(=O)[C@@H](N)Cc1c[nH]cn1)[C@@H](C)O)[C@@H](C)O)[C@@H](C)CC)C(=O)N[C@@H](C)C(=O)N[C@@H](Cc1c[nH]c2ccccc12)C(=O)N[C@@H](CC(C)C)C(=O)N[C@@H](Cc1ccc(O)cc1)C(=O)N[C@@H](C)C(=O)N[C@@H](Cc1c[nH]cn1)C(=O)N[C@@H](CCCCN)C(=O)N[C@H](C(=O)N[C@H](C(=O)N[C@@H](CC(=O)O)C(=O)O)[C@@H](C)O)[C@@H](C)CC [Compound 28] (H-H[Aib]EGSFTSELATILDEQAARDFIAWLYAHKITD-OH)	0.11 nM	0.024 nM
CC[C@H](C)[C@H](NC(=O)[C@H](CC(C)C)NC(=O)[C@H](Cc1c[nH]c2ccccc12)NC(=O)[C@H](C)NC(=O)[C@@H](NC(=O)[C@H](Cc1ccccc1)NC(=O)[C@H](CC(=O)O)NC(=O)[C@H](CCCNC(=N)N)NC(=O)[C@H](C)NC(=O)[C@H](C)NC(=O)[C@H](CCCCN)NC(=O)CNC(=O)[C@H](CC(=O)O)NC(=O)[C@H](CC(C)C)NC(=O)[C@@H](NC(=O)[C@@H](NC(=O)[C@H](C)NC(=O)[C@H](CC(C)C)NC(=O)[C@H](CCC(=O)O)NC(=O)[C@H](CO)NC(=O)[C@@H](NC(=O)[C@H](Cc1ccccc1)NC(=O)[C@@H](NC(=O)CNC(=O)[C@H](CCC(=O)O)NC(=O)C(C)(C)NC(=O)[C@@H](N)Cc1c[nH]cn1)[C@@H](C)O)[C@@H](C)O)[C@@H](C)O)[C@@H](C)CC)[C@@H](C)CC)C(=O)N[C@@H](C)C(=O)N[C@@H](Cc1c[nH]cn1)C(=O)N[C@@H](CCCCN)C(=O)N[C@H](C(=O)N[C@H](C(=O)N[C@@H](CC(=O)O)C(=O)O)[C@@H](C)O)[C@@H](C)CC [Compound 11] (H-H[Aib]EGTFTSELATILDGKAARDFIAWLIAHKITD-OH)	0.011 nM	0.085 nM
CC[C@H](C)[C@H](NC(=O)[C@H](CC(C)C)NC(=O)[C@H](Cc1c[nH]c2ccccc12)NC(=O)[C@H](C)NC(=O)[C@@H](NC(=O)[C@H](Cc1ccccc1)NC(=O)[C@H](CC(=O)O)NC(=O)[C@H](CCCNC(=N)N)NC(=O)[C@H](C)NC(=O)[C@H](C)NC(=O)[C@H](CCC(N)=O)NC(=O)[C@H](CCC(=O)O)NC(=O)[C@H](CC(=O)O)NC(=O)[C@H](CC(C)C)NC(=O)[C@@H](NC(=O)[C@@H](NC(=O)[C@H](C)NC(=O)[C@H](CC(C)C)NC(=O)[C@H](CCC(=O)O)NC(=O)[C@H](CO)NC(=O)[C@@H](NC(=O)[C@H](Cc1ccccc1)NC(=O)[C@H](CO)NC(=O)CNC(=O)[C@H](CCC(=O)O)NC(=O)C(C)(C)NC(=O)[C@@H](N)Cc1c[nH]cn1)[C@@H](C)O)[C@@H](C)O)[C@@H](C)CC)[C@@H](C)CC)C(=O)N[C@@H](C)C(=O)N[C@@H](CCC(N)=O)C(=O)N[C@@H](CCCCN)C(=O)N[C@H](C(=O)N[C@H](C(=O)N[C@@H](CC(=O)O)C(=O)O)[C@@H](C)O)[C@@H](C)CC [Compound 25] (H-H[Aib]EGSFTSELATILDEQAARDFIAWLIAQKITD-OH)	0.008 nM	0.062 nM
CC[C@H](C)[C@H](NC(=O)[C@H](Cc1ccccc1)NC(=O)[C@H](CC(=O)O)NC(=O)[C@H](CCCNC(=N)N)NC(=O)[C@H](C)NC(=O)[C@H](C)NC(=O)[C@H](CCC(N)=O)NC(=O)[C@H](CCC(=O)O)NC(=O)[C@H](CC(=O)O)NC(=O)[C@H](CC(C)C)NC(=O)[C@@H](NC(=O)[C@@H](NC(=O)[C@H](C)NC(=O)[C@H](CC(C)C)NC(=O)[C@H](CCC(=O)O)NC(=O)[C@H](CO)NC(=O)[C@@H](NC(=O)[C@H](Cc1ccccc1)NC(=O)[C@@H](NC(=O)CNC(=O)[C@H](CCC(=O)O)NC(=O)C(C)(C)NC(=O)[C@@H](N)Cc1c[nH]cn1)[C@@H](C)O)[C@@H](C)O)[C@@H](C)O)[C@@H](C)CC)C(=O)N[C@@H](C)C(=O)N[C@@H](Cc1c[nH]c2ccccc12)C(=O)N[C@@H](CC(C)C)C(=O)N[C@@H](Cc1ccc(O)cc1)C(=O)N[C@@H](C)C(=O)N[C@@H](Cc1c[nH]cn1)C(=O)N[C@@H](CCCCN)C(=O)N[C@H](C(=O)N[C@H](C(=O)N[C@@H](CC(=O)O)C(=O)O)[C@@H](C)O)[C@@H](C)CC [Compound 14] (H-H[Aib]EGTFTSELATILDEQAARDFIAWLYAHKITD-OH)	0.021 nM	0.049 nM
CC[C@H](C)[C@H](NC(=O)[C@H](Cc1ccccc1)NC(=O)[C@H](CC(=O)O)NC(=O)[C@H](CCCNC(=N)N)NC(=O)[C@H](C)NC(=O)[C@H](C)NC(=O)[C@H](CCC(N)=O)NC(=O)[C@H](CCC(=O)O)NC(=O)[C@H](CC(=O)O)NC(=O)[C@H](CC(C)C)NC(=O)[C@@H](NC(=O)[C@@H](NC(=O)[C@H](C)NC(=O)[C@H](CC(C)C)NC(=O)[C@H](CCC(=O)O)NC(=O)[C@H](CO)NC(=O)[C@@H](NC(=O)[C@H](Cc1ccccc1)NC(=O)[C@H](CO)NC(=O)CNC(=O)[C@H](CCC(=O)O)NC(=O)C(C)(C)NC(=O)[C@@H](N)Cc1c[nH]cn1)[C@@H](C)O)[C@@H](C)O)[C@@H](C)CC)C(=O)N[C@@H](C)C(=O)N[C@@H](Cc1c[nH]c2ccccc12)C(=O)N[C@@H](CC(C)C)C(=O)N[C@@H](Cc1ccc(O)cc1)C(=O)N[C@@H](CCC(=O)O)C(=O)N[C@@H](Cc1c[nH]cn1)C(=O)N[C@@H](CCCCN)C(=O)N[C@H](C(=O)N[C@H](C(=O)N[C@@H](CC(=O)O)C(=O)O)[C@@H](C)O)[C@@H](C)CC [Compound 23] (H-H[Aib]EGSFTSELATILDEQAARDFIAWLYEHKITD-OH)	0.12 nM	0.034 nM
